Test results reported in patent US8268829B2, “Substituted pyrimidines useful as protein kinase inhibitors” (Vertex Pharmaceuticals Inc., priority 2002, dated 2012).

| SMILES | melting point [°C] |
| --- | --- |
| Cc1cc(Nc2cc(N3CCOCC3)nc(Sc3ccc(NC(=O)C4CC4)cc3)n2)[nH]n1 [Compound I-61] | 238 to 239 |
| N#CCCN1CCN(c2cc(Nc3ccn[nH]3)nc(Sc3ccc(NC(=O)C4CC4)cc3)n2)CC1 [Compound I-37] | 131 to 132 |
| CS(=O)(=O)N1CCN(c2cc(Nc3ccn[nH]3)nc(Sc3ccc(NC(=O)C4CC4)cc3)n2)CC1 [Compound I-42] | 168 to 169 |
| CS(=O)(=O)CCN1CCN(c2cc(Nc3ccn[nH]3)nc(Sc3ccc(NC(=O)C4CC4)cc3)n2)CC1 [Compound I-45] | 154 to 155 |
| CC1CN(c2cc(Nc3ccn[nH]3)nc(Sc3ccc(NC(=O)C4CC4)cc3)n2)CCN1 (centres unmarked) [Compound I-46] | 160 to 161 |
| CCC(=O)Nc1ccc(Sc2nc(Nc3cc(C)n[nH]3)cc(N3CCC(N)C3)n2)cc1 (centres unmarked) [Compound I-20] | 159 to 160 |
| CCC(=O)Nc1ccc(Sc2nc(Nc3cc(C)n[nH]3)cc(N3CC(C)NC(C)C3)n2)cc1 (centres unmarked) [Compound I-19] | 151 to 152 |
| CC(C)(C)N1CCN(c2cc(Nc3ccn[nH]3)nc(Sc3ccc(NC(=O)C4CC4)cc3)n2)CC1 [Compound I-53] | 167 to 169 |
| Cc1cc(Nc2cc(N3CCNCC3)nc(Sc3ccc(NC(=O)C(C)(C)C)cc3)n2)[nH]n1 [Compound V-3] | 178 to 181 |
| Cc1cc(Nc2cc(NCCN3CCCC3)nc(Sc3ccc(NC(=O)C4CC4)cc3)n2)[nH]n1 [Compound I-29] | 220 to 222 |
| O=C(Nc1ccc(Sc2nc(Nc3ccn[nH]3)cc(N3CCN(CC(=O)N4CCOCC4)CC3)n2)cc1)C1CC1 [Compound I-47] | 158 to 159 |
